Results from patent publication US11084818B2 (HEPO PHARMACEUTICAL CO., LTD., priority 2016, dated 2021).

How the values were obtained:
hTLR7 [1] = molecular target: T1, hTLR7 (Homo sapiens, UniProt Q9NYK1); assay: EC50 of GS9620 for hTLR7 as reported in WO2016023511A1; details: in words, from the EC50 values reported in WO2016023511A1
T1 construct: host or cells: HEK-Blue hTLR7 (HEK293-derived reporter line)
T1 sequence (Q9NYK1 27-1049): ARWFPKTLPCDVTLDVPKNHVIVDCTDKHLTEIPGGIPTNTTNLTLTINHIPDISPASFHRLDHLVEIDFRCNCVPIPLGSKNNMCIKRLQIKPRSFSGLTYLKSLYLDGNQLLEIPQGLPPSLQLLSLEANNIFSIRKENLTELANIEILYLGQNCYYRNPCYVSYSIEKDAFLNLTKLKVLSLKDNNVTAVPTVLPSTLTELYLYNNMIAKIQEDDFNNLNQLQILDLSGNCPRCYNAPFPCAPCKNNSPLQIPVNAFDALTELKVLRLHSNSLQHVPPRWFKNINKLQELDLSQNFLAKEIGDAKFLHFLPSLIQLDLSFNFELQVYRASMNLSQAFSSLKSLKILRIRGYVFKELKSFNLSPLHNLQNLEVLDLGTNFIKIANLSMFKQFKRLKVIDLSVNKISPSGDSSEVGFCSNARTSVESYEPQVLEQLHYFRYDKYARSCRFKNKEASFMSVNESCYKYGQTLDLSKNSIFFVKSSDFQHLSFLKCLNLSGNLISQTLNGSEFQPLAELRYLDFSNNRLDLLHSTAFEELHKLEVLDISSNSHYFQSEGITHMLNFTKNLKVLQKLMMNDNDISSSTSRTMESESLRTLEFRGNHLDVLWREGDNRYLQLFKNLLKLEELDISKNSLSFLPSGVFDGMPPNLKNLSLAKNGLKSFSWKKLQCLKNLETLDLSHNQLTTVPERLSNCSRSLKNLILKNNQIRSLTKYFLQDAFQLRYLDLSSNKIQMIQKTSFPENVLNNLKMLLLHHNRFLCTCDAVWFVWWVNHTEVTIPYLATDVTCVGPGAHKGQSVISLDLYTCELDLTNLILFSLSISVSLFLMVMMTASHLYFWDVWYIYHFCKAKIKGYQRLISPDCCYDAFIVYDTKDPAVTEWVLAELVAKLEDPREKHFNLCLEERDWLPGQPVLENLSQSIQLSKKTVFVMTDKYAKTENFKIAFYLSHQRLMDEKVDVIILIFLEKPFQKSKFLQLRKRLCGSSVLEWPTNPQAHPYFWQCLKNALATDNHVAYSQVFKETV

hTLR7 [2] = molecular target: T1, hTLR7; assay: Activation activity test of hTLR7 (HEK-Blue hTLR7 cells, QUANTI-Blue OD650); assay type: cell-based; details: 24 hours incubation, read-out: TLR7 (EC50)
hTLR8 = molecular target: T2, hTLR8 (Homo sapiens, UniProt Q9NR97); assay: Activation activity test of hTLR8 (HEK-Blue hTLR8 cells, QUANTI-Blue OD650); assay type: cell-based; details: HEK-Blue hTLR8 cells, 24 hours incubation; read-out: TLR8 (EC50)
T2 construct: host or cells: HEK-Blue hTLR8 (HEK293-derived reporter line)
T2 sequence (Q9NR97 27-1041): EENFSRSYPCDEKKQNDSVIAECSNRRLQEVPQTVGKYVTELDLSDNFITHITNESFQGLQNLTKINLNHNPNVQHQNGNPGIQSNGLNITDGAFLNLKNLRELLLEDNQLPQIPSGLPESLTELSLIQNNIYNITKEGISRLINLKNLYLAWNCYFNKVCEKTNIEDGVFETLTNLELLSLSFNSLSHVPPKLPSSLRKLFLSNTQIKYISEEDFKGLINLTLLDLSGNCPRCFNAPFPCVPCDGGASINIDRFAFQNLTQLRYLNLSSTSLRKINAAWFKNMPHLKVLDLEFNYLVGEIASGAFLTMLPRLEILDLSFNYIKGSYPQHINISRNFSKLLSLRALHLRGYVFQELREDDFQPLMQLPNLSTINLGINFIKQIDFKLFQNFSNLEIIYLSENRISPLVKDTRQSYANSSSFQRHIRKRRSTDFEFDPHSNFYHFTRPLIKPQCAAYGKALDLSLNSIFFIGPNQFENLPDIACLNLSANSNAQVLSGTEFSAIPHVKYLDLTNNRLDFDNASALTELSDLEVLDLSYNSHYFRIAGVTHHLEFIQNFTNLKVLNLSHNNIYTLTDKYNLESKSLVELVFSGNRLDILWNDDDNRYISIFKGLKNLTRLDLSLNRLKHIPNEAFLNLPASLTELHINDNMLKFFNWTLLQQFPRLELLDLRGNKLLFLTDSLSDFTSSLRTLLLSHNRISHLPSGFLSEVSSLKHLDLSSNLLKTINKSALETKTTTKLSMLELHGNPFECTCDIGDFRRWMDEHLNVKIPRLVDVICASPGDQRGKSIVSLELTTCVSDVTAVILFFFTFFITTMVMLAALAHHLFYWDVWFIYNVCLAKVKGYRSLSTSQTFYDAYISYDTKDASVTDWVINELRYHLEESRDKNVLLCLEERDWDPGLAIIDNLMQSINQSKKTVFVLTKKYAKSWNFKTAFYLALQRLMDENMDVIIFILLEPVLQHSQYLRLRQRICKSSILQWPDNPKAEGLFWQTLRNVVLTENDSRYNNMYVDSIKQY

EC50 (hTLR7 [2]) | EC50 (hTLR8) | SMILES | selectivity to TLR7 (hTLR7 [1])
 |  | CCCCOc1nc(N)c2c(n1)N(Cc1cccc(CN3CCCC3)c1)CC(=O)N2 [GS9620] | poor
1 to 10 µM | > 100 µM | COCCOc1ncc2[nH]c(=O)n(Cc3ccc(CN4C[C@H]5CN(C)C[C@H]5C4)cc3)c2n1 [Example 12] | 
1 to 10 µM | > 100 µM | COCCOc1ncc2[nH]c(=O)n(Cc3ccc(CN4CCCC4)cc3)c2n1 [Example 1, 2-(2-methoxyethoxy)-9-(4-(pyrrolidin-1-ylmethyl)benzyl)-7,9-dihydro-8H-purin-8-one] | 
1 to 10 µM | > 100 µM | CCC(c1ccc(Cn2c(=O)[nH]c3cnc(OCCOC)nc32)cc1)N1CCCC1 (stereo not drawn) [Example 17] | 
0.001 to 1 µM | > 100 µM | COCCOc1ncc2[nH]c(=O)n(Cc3ccc(C(C)N4CCCCC4)cc3)c2n1 (stereo not drawn) [Example 15, 2-(2-methoxyethoxy)-9-(4-(1-(piperidin-1-yl)ethyl)benzyl)-7,9-dihydro-8H-purin-8-one] | 
